# Source: patent publication US10246411B2, “(Z)-3,4,5-trimethoxystyrylbenzenesulfonamides as potential anticancer agents” (COUNCIL OF SCIENTIFIC & INDUSTRIAL RESEARCH, priority 2014, dated 2019)
# Read-outs that look alike come from different tables or passages of the source.
# Key:
# human tumor cell lines = assay: In vitro cytotoxicity (NCI protocol, SRB), whole panel / mean graph midpoints; type: cell-based; conditions: for GI50: Homo sapiens; for Log10GI50 mean graph mid point (MG_MID) / Log10LC50 mean graph mid point (MG_MID) / Log10TGI mean graph mid point (MG_MID): mean over human tumor cell lines
# Source text: The mean graph midpoint values of Log10 TGI and Log10 LC50 as well as Log10 GI50 for compounds 17a, 17c, 13a, 13c and 12a is listed in Table-2. […] The mean graph midpoints of Log10 TGI and Log10 LC50 have shown similar pattern to the log10 GI50 mean graph mid points.
# NCIH322M = assay: In vitro cytotoxicity (NCI protocol, SRB), NCIH322M; conditions: Homo sapiens, NCI-H322M, 48 h
# HCT-116 = assay: In vitro cytotoxicity (NCI protocol, SRB), HCT-116; conditions: Homo sapiens, HCT-116, 48 h
# MDA-MB-435 [1] = assay: In vitro cytotoxicity (NCI protocol, SRB), MDA-MB-435 (melanoma panel); conditions: Melanoma MDA-MB-435, 48 h exposure
# M14 = assay: In vitro cytotoxicity (NCI protocol, SRB), M14; conditions: Homo sapiens, M14, 48 h
# SF-539 = assay: In vitro cytotoxicity (NCI protocol, SRB), SF-539; conditions: Homo sapiens, 48 h
# COLO-205 = assay: In vitro cytotoxicity (NCI protocol, SRB), COLO-205; conditions: Homo sapiens, COLO 205, 48 h
# UACC-257 = assay: In vitro cytotoxicity (NCI protocol, SRB), UACC-257; conditions: Homo sapiens, UACC-257, 48 h
# MCF7 = assay: In vitro cytotoxicity (NCI protocol, SRB), MCF7; conditions: Homo sapiens, MCF7, 48 h
# MDA-MB-435 [2] = assay: In vitro cytotoxicity (NCI protocol, SRB), MDA-MB-435 (breast panel line); conditions: Homo sapiens, MDA-MB-435, 48 h
# OVCAR-3 = assay: In vitro cytotoxicity (NCI protocol, SRB), OVCAR-3; conditions: Homo sapiens, OVCAR-3, 48 h
# ACHN = assay: In vitro cytotoxicity (NCI protocol, SRB), ACHN; conditions: Homo sapiens, 48 h
# HS 578T = assay: In vitro cytotoxicity (NCI protocol, SRB), HS 578T; conditions: Homo sapiens, 48 h
# OVCAR-8 = assay: In vitro cytotoxicity (NCI protocol, SRB), OVCAR-8; conditions: Homo sapiens, OVCAR-8, 48 h
# MDA-MB-231/ATCC = assay: In vitro cytotoxicity (NCI protocol, SRB), MDA-MB-231/ATCC; conditions: Homo sapiens, MDA-MB-231, 48 h
# NCI-H460 = assay: In vitro cytotoxicity (NCI protocol, SRB), NCI-H460; conditions: Homo sapiens, NCI-H460, 48 h
# HOP92 = assay: In vitro cytotoxicity (NCI protocol, SRB), HOP92; conditions: Homo sapiens, HOP-92, 48 h
# HL-60(TB) = assay: In vitro cytotoxicity (NCI protocol, SRB), HL-60(TB); type: cell-based; conditions: Homo sapiens, Leukemia HL-60(TB), 48 h exposure
# KM12 = assay: In vitro cytotoxicity (NCI protocol, SRB), KM12; conditions: Homo sapiens, KM12, 48 h
# UACC-62 = assay: In vitro cytotoxicity (NCI protocol, SRB), UACC-62; conditions: Homo sapiens, UACC-62, 48 h
# DU-145 = assay: In vitro cytotoxicity (NCI protocol, SRB), DU-145; conditions: Homo sapiens, DU-145, 48 h
# MALME-3M = assay: In vitro cytotoxicity (NCI protocol, SRB), MALME-3M; conditions: Homo sapiens, 48 h
# OVCAR-5 = assay: In vitro cytotoxicity (NCI protocol, SRB), OVCAR-5; conditions: Homo sapiens, OVCAR-5, 48 h
# NCI-H522 = assay: In vitro cytotoxicity (NCI protocol, SRB), NCI-H522; conditions: Homo sapiens, NCI-H522, 48 h
# MOLT-4 = assay: In vitro cytotoxicity (NCI protocol, SRB), MOLT-4; conditions: Homo sapiens, MOLT-4, 48 h
# TK-10 = assay: In vitro cytotoxicity (NCI protocol, SRB), TK-10; conditions: Homo sapiens, TK-10, 48 h
# SR = assay: In vitro cytotoxicity (NCI protocol, SRB), SR; conditions: Homo sapiens, 48 h
# NCI/ADR-RES = assay: In vitro cytotoxicity (NCI protocol, SRB), NCI/ADR-RES; conditions: Homo sapiens, 48 h
# SK-OV-3 = assay: In vitro cytotoxicity (NCI protocol, SRB), SK-OV-3; conditions: Homo sapiens, SK-OV-3, 48 h
# UO-31 = assay: In vitro cytotoxicity (NCI protocol, SRB), UO-31; conditions: Homo sapiens, UO-31, 48 h
# [3] = against all the cancer cell lines, read-out: GI50 values range
# [4] = against fifty eight cell lines in nine cancer cell panels, read-out: GI50 values
# [5] = against almost 50 above cancer cell lines
# [6] = against almost all tumor cell lines, read-out: GI50 values
SMILES,GI50 (human tumor cell lines; [4]) [µM],Log10GI50 mean graph mid point (MG_MID) (human tumor cell lines),Log10LC50 mean graph mid point (MG_MID) (human tumor cell lines),Log10TGI mean graph mid point (MG_MID) (human tumor cell lines),GI50 (NCIH322M) [µM],GI50 (HCT-116) [µM],"GI50 (MDA-MB-435 [1]; Homo sapiens, MDA-MB-435, 48 h) [µM]",GI50 (M14) [µM],GI50 (SF-539) [µM],GI50 (COLO-205) [µM],GI50 (MCF7) [µM],GI50 (MDA-MB-435 [2]) [µM],GI50 (OVCAR-3) [µM],GI50 (ACHN) [µM],GI50 (HS 578T) [µM],GI50 (OVCAR-8) [µM],GI50 (MDA-MB-231/ATCC) [µM],GI50 (NCI-H460) [µM],GI50 (HOP92) [µM],GI50 (HL-60(TB)) [µM],also measured
"COc1ccc(S(=O)(=O)Nc2cc(/C=C\c3cc(OC)c(OC)c(OC)c3)ccc2OC)cc1 [12a, (Z)-4-methoxy-N-(2-methoxy-5-(3,4,5-trimethoxystyryl)phenyl)benzenesulfonamide]",0.02 to 0.05,−6.86,−4.06,−4.49,0.43,0.0797,0.0274,0.103,0.126,0.0383,0.0426,0.168,0.0528,0.0587,0.226,0.276,0.399,0.178,0.0974,0.195,GI50 (human tumor cell lines; [3]): 0.018 to 0.05 µM; cytotoxicity (human tumor cell lines; [5]): significant cytotoxicity; GI50 (UACC-257): 2.98 µM; GI50 (KM12): 0.0738 µM; GI50 (UACC-62): 0.049 µM; GI50 (DU-145): 0.341 µM; GI50 (MALME-3M): 0.0527 µM; GI50 (OVCAR-5): 0.323 µM; GI50 (NCI-H522): 0.0204 µM; GI50 (MOLT-4): 0.388 µM; GI50 (TK-10): 0.0768 µM; GI50 (SR): 0.0709 µM; GI50 (NCI/ADR-RES): 0.0711 µM; GI50 (SK-OV-3): 0.0963 µM; GI50 (UO-31): 0.131 µM
"COc1ccc(S(=O)(=O)Nc2cc(/C=C\c3cc(OC)c(OC)c(OC)c3)cc(OC)c2OC)cc1 [13a, (Z)—N-(2,3-dimethoxy-5-(3,4,5-trimethoxystyryl)phenyl)-4-methoxybenzenesulfonamide]",0.02 to 0.05,−7.2,−4.07,−4.55,0.0553,0.035,0.0211,0.0301,0.0253,0.0214,0.036,0.042,0.0345,0.057,0.0452,0.0459,0.0479,0.0367,1.75,0.0234,GI50 (human tumor cell lines; [3]): 0.018 to 0.05 µM; GI50 (human tumor cell lines; [6]): < 0.05 µM; cytotoxicity (human tumor cell lines; [5]): significant cytotoxicity; GI50 (UACC-257): 4.1 µM; GI50 (KM12): 0.0397 µM; GI50 (UACC-62): 0.0461 µM; GI50 (DU-145): 0.0416 µM; GI50 (MALME-3M): 12.6 µM; GI50 (OVCAR-5): 0.0499 µM; GI50 (NCI-H522): 0.0197 µM; GI50 (MOLT-4): 0.0495 µM; GI50 (TK-10): 0.065 µM; GI50 (SR): 0.0352 µM; GI50 (NCI/ADR-RES): 0.0353 µM; GI50 (SK-OV-3): 0.0378 µM; GI50 (UO-31): 0.0636 µM
"COc1cc(/C=C\c2cc(OC)c(OC)c(OC)c2)cc(NS(=O)(=O)c2ccc(Cl)cc2)c1OC [13c, (Z)-4-chloro-N-(2,3-dimethoxy-5-(3,4,5-trimethoxystyryl)phenyl)benzenesulfonamide]",0.02 to 0.05,−6.27,−4.03,−4.42,0.759,0.469,0.188,0.391,0.303,0.252,0.375,0.271,0.364,0.586,0.351,0.6,1.16,0.364,0.72,0.249,cytotoxicity (human tumor cell lines; [5]): significant cytotoxicity; GI50 (UACC-257): 12.5 µM; GI50 (KM12): 0.572 µM; GI50 (UACC-62): 0.435 µM; GI50 (DU-145): 0.507 µM; GI50 (OVCAR-5): 0.726 µM; GI50 (NCI-H522): 0.209 µM; GI50 (MOLT-4): 0.672 µM; GI50 (TK-10): 0.779 µM; GI50 (SR): 0.406 µM; GI50 (NCI/ADR-RES): 0.364 µM; GI50 (SK-OV-3): 0.449 µM; GI50 (UO-31): 0.696 µM
"COc1ccc(S(=O)(=O)Nc2c(/C=C\c3cc(OC)c(OC)c(OC)c3)ccc(OC)c2O)cc1 [17a, (Z)—N-(2-hydroxy-3-methoxy-6-(3,4,5-trimethoxystyryl)phenyl)-4-methoxybenzenesulfonamide]",0.02 to 0.05,−7.17,−4.05,−4.55,0.0633,0.032,0.019,0.0313,0.0293,0.406,0.038,0.0439,0.0339,0.0613,0.047,0.0466,0.0503,0.0368,1.6,0.0235,GI50 (human tumor cell lines; [3]): 0.018 to 0.05 µM; GI50 (human tumor cell lines; [6]): < 0.05 µM; cytotoxicity (human tumor cell lines; [5]): significant cytotoxicity; GI50 (MDA-MB-435 [1]): 0.0192 µM; GI50 (KM12): 0.0355 µM; GI50 (UACC-62): 0.0389 µM; GI50 (DU-145): 0.0425 µM; GI50 (MALME-3M): 1.51 µM; GI50 (OVCAR-5): 1.02 µM; GI50 (NCI-H522): 0.0202 µM; GI50 (MOLT-4): 0.0423 µM; GI50 (TK-10): 0.0732 µM; GI50 (SR): 0.0319 µM; GI50 (NCI/ADR-RES): 0.155 µM; GI50 (SK-OV-3): 0.0296 µM; GI50 (UO-31): 0.0619 µM
"COc1ccc(/C=C\c2cc(OC)c(OC)c(OC)c2)c(NS(=O)(=O)c2ccc(Cl)cc2)c1O [17c, (Z)-4-chloro-N-(2-hydroxy-3-methoxy-6-(3,4,5-trimethoxystyryl)phenyl)benzenesulfonamide]",0.02 to 0.05,−6.71,−4.07,−4.66,0.485,0.114,0.0222,0.0913,0.037,1.74,0.0384,0.0367,0.0602,0.0838,0.292,0.294,0.206,0.316,2.36,0.0331,cytotoxicity (human tumor cell lines): significant cytotoxicity; GI50 (human tumor cell lines; [3]): 0.018 to 0.05 µM; GI50 (UACC-257): 14.2 µM; GI50 (KM12): 0.127 µM; GI50 (UACC-62): 0.0635 µM; GI50 (DU-145): 0.2 µM; GI50 (OVCAR-5): 2.86 µM; GI50 (NCI-H522): 0.0848 µM; GI50 (MOLT-4): 0.0315 µM; GI50 (TK-10): 0.998 µM; GI50 (SR): 0.0306 µM; GI50 (NCI/ADR-RES): 0.263 µM; GI50 (SK-OV-3): 0.229 µM; GI50 (UO-31): 0.0739 µM
